From PMC6925188, “PBRM1 acts as a p53 lysine-acetylation reader to suppress renal tumor growth” (Nature Communications, 2019)
Marks after values point to notes of the source that are not given here.

What was measured:
endogenous PBRM1 and p53 = assay: Endogenous p53 immunoprecipitation, HEK293 cells; assay type: cell-based, human; conditions: 50 μM, 8 h
Source text: Fig. 1 PBRM1 and p53 display a physical association that is enhanced after DNA damage. a U2OS cells (left) and HEK293T cells (right) were transfected with vector or Flag-PBRM1 and harvested for immunoprecipitation with Flag-M2 beads and elution with 3X Flag peptide. […] Lysates were subjected to immunoprecipitation with Flag-M2 beads. […] Lysates were immunoprecipitated with p53 antibody. The bound PBRM1 and p53 were examined by immunoblots. Source data are provided as a Source Data file.

RCC4 cells = assay: RT-qPCR of p53 targets, RCC4 cells; assay type: cell-based; design: CDKN1A expression / MDM2 expression / GADD45A expression / PUMA expression / NOXA expression: reference not given here; conditions: 24 h; for CDKN1A expression / GADD45A expression / MDM2 expression / NOXA expression / PUMA expression: 100 μM
Description: (§1) Lysates were analyzed by immunoblots. c RCC4 cells with or without p53 KO were transfected with vector or Flag-PBRM1 at the indicated amounts. […] Cells were harvested for RT-qPCR (g) or ChIP followed by qPCR (h). […] Representative data is shown in i. Quantification of cell cycle phase is shown in j. Source data are provided as a Source Data file.
Total RNA was extracted from cells using the RNeasy Plus Mini Kit (74136, Qiagen), and the concentration was measured using the NanoDrop ND-1000 system (Thermo Scientific). Reverse transcription was performed using the First Strand cDNA Synthesis Kit (NP100042, Origen) with 0.5 µg total RNA. Real-time PCR was performed with Maxima SYBR Green qPCR Master Mix (K0253, Thermo Scientific) using the Roche LightCycler 480. […] GAPDH was used as an internal control. Data are shown as mean ± SEM for three independent experiments.

PBRM1 binding to CDKN1A = assay: ChIP-qPCR, Flag antibody (Flag-PBRM1), CDKN1A gene, RCC4 cells; assay type: cell-based; design: unit not given here; conditions: 100 μM, 24 h
Description: as §1
ChIP assays were performed with the Pierce Agarose ChIP Kit (26156, Thermo Scientific) according to the manufacturer’s instructions with minor revisions. In brief, samples were crosslinked with 1% paraformaldehyde and halted by 125 mM glycine. After washing twice with ice-cold PBS, cells were harvested and suspended in Lysis Buffer 1 and incubated on ice for 10 min. 1 × 10^7 nuclei were resuspended in 500 μl MNase Digestion Buffer containing 6.25 U Micrococcal Nuclease and incubated at 37 °C for 15 min. After the reaction was stopped, nuclei were pelleted by centrifugation and resuspended in 250 μl Lysis Buffer 2. Nuclei were sonicated at 10% amplitude for 10 s twice and incubated on ice for 30 min. After centrifugation, 50 μl supernatant containing the digested chromatin from 2 × 10^6 nuclei was diluted in 1× IP Dilution Buffer and incubated with antibodies (normal rabbit IgG for control, 1 μg FL393 + 1 μg DO-1 for p53 or 2 μg Flag M2 for Flag-PBRM1) overnight at 4 °C. […] of ChIP Grade Protein A/G Plus Agarose was added and incubated for 1 h at 4 °C. The agarose resins were washed once with IP Wash Buffer 1, twice with IP Wash Buffer 2 and once with IP Wash Buffer 3. 150 μl 1× IP Elution Buffer was added to the washed resin and incubated at 65 °C for 30 min with shaking. The eluate was treated with Proteinase K and DNA was extracted with columns provided in the kit.

Compound: COc1cc([C@@H]2c3cc4c(cc3[C@@H](O[C@@H]3O[C@@H]5CO[C@@H](C)O[C@H]5[C@H](O)[C@H]3O)[C@H]3COC(=O)[C@H]23)OCO4)cc(OC)c1O [Etoposide]
- endogenous PBRM1 precipitated by p53 (endogenous PBRM1 and p53): increased the amount of endogenous PBRM1 precipitated
- expression of p53 downstream targets with PBRM1 restoration (RCC4 cells; 100 μM etoposide, RCC4): up-regulated by restoration of PBRM1 but not PBRM1 BD4*
- CDKN1A expression (RCC4 cells; RCC4-GFP, assay 1): 49.6546
- GADD45A expression (RCC4 cells; RCC4-GFP, assay 1): 6.5687
- MDM2 expression (RCC4 cells; RCC4-GFP, assay 1): 12.9102
- NOXA expression (RCC4 cells; RCC4-GFP, assay 1): 7.6934
- PUMA expression (RCC4 cells; RCC4-GFP, assay 1): 10.0905
- CDKN1A expression (RCC4 cells; RCC4-GFP, assay 2): 44.3116
- GADD45A expression (RCC4 cells; RCC4-GFP, assay 2): 5.0617
- MDM2 expression (RCC4 cells; RCC4-GFP, assay 2): 12.821
- NOXA expression (RCC4 cells; RCC4-GFP, assay 2): 9.2403
- PUMA expression (RCC4 cells; RCC4-GFP, assay 2): 12.0208
- CDKN1A expression (RCC4 cells; RCC4-GFP, assay 3): 55.0506
- GADD45A expression (RCC4 cells; RCC4-GFP, assay 3): 5.7956
- MDM2 expression (RCC4 cells; RCC4-GFP, assay 3): 12.4332
- NOXA expression (RCC4 cells; RCC4-GFP, assay 3): 9.8148
- PUMA expression (RCC4 cells; RCC4-GFP, assay 3): 9.8829
- CDKN1A expression (RCC4 cells; RCC4-PBRM1-BD4*, assay 1): 45.9041
- GADD45A expression (RCC4 cells; RCC4-PBRM1-BD4*, assay 1): 6.7644
- MDM2 expression (RCC4 cells; RCC4-PBRM1-BD4*, assay 1): 11.4101
- NOXA expression (RCC4 cells; RCC4-PBRM1-BD4*, assay 1): 9.833
- PUMA expression (RCC4 cells; RCC4-PBRM1-BD4*, assay 1): 10.713
- CDKN1A expression (RCC4 cells; RCC4-PBRM1-BD4*, assay 2): 43.4526
- GADD45A expression (RCC4 cells; RCC4-PBRM1-BD4*, assay 2): 6.5588
- MDM2 expression (RCC4 cells; RCC4-PBRM1-BD4*, assay 2): 13.589
- NOXA expression (RCC4 cells; RCC4-PBRM1-BD4*, assay 2): 9.0815
- PUMA expression (RCC4 cells; RCC4-PBRM1-BD4*, assay 2): 12.1902
- CDKN1A expression (RCC4 cells; RCC4-PBRM1-BD4*, assay 3): 51.1258
- GADD45A expression (RCC4 cells; RCC4-PBRM1-BD4*, assay 3): 6.6252
- MDM2 expression (RCC4 cells; RCC4-PBRM1-BD4*, assay 3): 12.0244
- NOXA expression (RCC4 cells; RCC4-PBRM1-BD4*, assay 3): 9.5044
- PUMA expression (RCC4 cells; RCC4-PBRM1-BD4*, assay 3): 12.2164
- CDKN1A expression (RCC4 cells; RCC4-PBRM1, assay 1): 70.754
- GADD45A expression (RCC4 cells; RCC4-PBRM1, assay 1): 7.8588
- MDM2 expression (RCC4 cells; RCC4-PBRM1, assay 1): 16.2786
- NOXA expression (RCC4 cells; RCC4-PBRM1, assay 1): 11.5749
- PUMA expression (RCC4 cells; RCC4-PBRM1, assay 1): 13.0108
- CDKN1A expression (RCC4 cells; RCC4-PBRM1, assay 2): 72.9408
- GADD45A expression (RCC4 cells; RCC4-PBRM1, assay 2): 6.8115
- MDM2 expression (RCC4 cells; RCC4-PBRM1, assay 2): 15.8174
- NOXA expression (RCC4 cells; RCC4-PBRM1, assay 2): 11.4155
- PUMA expression (RCC4 cells; RCC4-PBRM1, assay 2): 15.9071
- CDKN1A expression (RCC4 cells; RCC4-PBRM1, assay 3): 96.454
- GADD45A expression (RCC4 cells; RCC4-PBRM1, assay 3): 7.8052
- MDM2 expression (RCC4 cells; RCC4-PBRM1, assay 3): 16.0682
- NOXA expression (RCC4 cells; RCC4-PBRM1, assay 3): 13.296
- PUMA expression (RCC4 cells; RCC4-PBRM1, assay 3): 14.8041
- Flag ChIP at CDKN1A-RE1 (PBRM1 binding to CDKN1A; RCC4-GFP, assay 1): 0.0131
- Flag ChIP at CDKN1A-TSS (PBRM1 binding to CDKN1A; RCC4-GFP, assay 1): 0.013
- Flag ChIP at CDKN1A-intron (PBRM1 binding to CDKN1A; RCC4-GFP, assay 1): 0.0279
- Flag ChIP at CDKN1A-RE1 (PBRM1 binding to CDKN1A; RCC4-GFP, assay 2): 0.0381
- Flag ChIP at CDKN1A-TSS (PBRM1 binding to CDKN1A; RCC4-GFP, assay 2): 0.0086
- Flag ChIP at CDKN1A-intron (PBRM1 binding to CDKN1A; RCC4-GFP, assay 2): 0.0296
- Flag ChIP at CDKN1A-RE1 (PBRM1 binding to CDKN1A; RCC4-GFP, assay 3): 0.0109
- Flag ChIP at CDKN1A-TSS (PBRM1 binding to CDKN1A; RCC4-GFP, assay 3): 0.0269
- Flag ChIP at CDKN1A-intron (PBRM1 binding to CDKN1A; RCC4-GFP, assay 3): 0.0971
- Flag ChIP at CDKN1A-RE1 (PBRM1 binding to CDKN1A; RCC4-PBRM1-BD4*, assay 1): 0.1332
- Flag ChIP at CDKN1A-TSS (PBRM1 binding to CDKN1A; RCC4-PBRM1-BD4*, assay 1): 0.204
- Flag ChIP at CDKN1A-intron (PBRM1 binding to CDKN1A; RCC4-PBRM1-BD4*, assay 1): 0.0594
- Flag ChIP at CDKN1A-RE1 (PBRM1 binding to CDKN1A; RCC4-PBRM1-BD4*, assay 2): 0.168
- Flag ChIP at CDKN1A-TSS (PBRM1 binding to CDKN1A; RCC4-PBRM1-BD4*, assay 2): 0.1814
- Flag ChIP at CDKN1A-intron (PBRM1 binding to CDKN1A; RCC4-PBRM1-BD4*, assay 2): 0.0845
- Flag ChIP at CDKN1A-RE1 (PBRM1 binding to CDKN1A; RCC4-PBRM1-BD4*, assay 3): 0.1906
- Flag ChIP at CDKN1A-TSS (PBRM1 binding to CDKN1A; RCC4-PBRM1-BD4*, assay 3): 0.171
- Flag ChIP at CDKN1A-intron (PBRM1 binding to CDKN1A; RCC4-PBRM1-BD4*, assay 3): 0.0675
- Flag ChIP at CDKN1A-RE1 (PBRM1 binding to CDKN1A; RCC4-PBRM1, assay 1): 0.118
- Flag ChIP at CDKN1A-TSS (PBRM1 binding to CDKN1A; RCC4-PBRM1, assay 1): 0.1053
- Flag ChIP at CDKN1A-intron (PBRM1 binding to CDKN1A; RCC4-PBRM1, assay 1): 0.1192
- Flag ChIP at CDKN1A-RE1 (PBRM1 binding to CDKN1A; RCC4-PBRM1, assay 2): 0.114
- Flag ChIP at CDKN1A-TSS (PBRM1 binding to CDKN1A; RCC4-PBRM1, assay 2): 0.1575
- Flag ChIP at CDKN1A-intron (PBRM1 binding to CDKN1A; RCC4-PBRM1, assay 2): 0.074
- Flag ChIP at CDKN1A-RE1 (PBRM1 binding to CDKN1A; RCC4-PBRM1, assay 3): 0.1263
- Flag ChIP at CDKN1A-TSS (PBRM1 binding to CDKN1A; RCC4-PBRM1, assay 3): 0.1136
- Flag ChIP at CDKN1A-intron (PBRM1 binding to CDKN1A; RCC4-PBRM1, assay 3): 0.066
